In paper PMC3034772 (Pharmaceutical research, 2010):
“And” between values parts separate entries of the source, which are not always exact repeats. Equal entries are not always repeated. Where two headings read alike, the source gives them in different places.

What was measured:
[1] = In combo PAMPA-BBB model, calculated log Po in situ
[2] = PAMPA; for Pm^7.4: pH 7.4
[3] = Charge class Q, dominant calculated charge state at pH 7.4; type: physicochemical
[4] = pKa determination, potentiometric; details: this work, 25°C, […] KCl (footnote b)
[5] = cited from earlier work
[6] = in vivo
physchem [7] = details: pKa
[8] = In situ brain perfusion permeability; details: from literature PS
[9] = PAMPA
[10] = cited from earlier work; remark: listed apart in the source
[11] = in vivo; cited from earlier work
[12] = In situ brain perfusion, individual literature values; details: from literature PS
[13] = ref [38], cited from earlier work
[14] = PAMPA; for Pm^7.4: pH 7.4; remark: listed apart in the source
physchem [15] = assay: physchem
[16] = mouse, in vivo
[17] = cited from earlier work; remark: listed apart in the source
Double-Sink PAMPA = details: intrinsic permeability, Type DS, Double-Sink PAMPA data scaled to the 3 μL level
PAMPA-BBB Type II = details: 3 μL lipid-volume coated filters
[18] = dominant calculated concentration fraction of the drug in a charge state
[19] = efflux inhibition column: not satbl

O=C(O)CCCc1ccc(N(CCCl)CCCl)cc1 [Chlorambucil]
obs–calc (log Po^in situ) [1]: 0.3 | log PABL [2]: −2.87 | log Po [2]: −2.45 | log Ppara [2]: −7.16 | Pm^7.4 [2]: 6 | Q (charge class) [3]: − | pKa ([4]; second pKa column): 4.28 | pKa [4]: 4.6 | PS ([5]; in vivo): 250 10^−4 mLg^−1s^−1 | log PS ([5]; in vivo): −1.60 | log Po^in situ (obs) [6]: −0.80

CN/C(=N/CCSCc1nc[nH]c1C)NC#N [Cimetidine]
pKa (physchem [7]): 6.13 | obs–calc (log Po^in situ) ([1]; efflux inhibition bcrp(−/−)): −0.4 | obs–calc (log Po^in situ) ([1]; efflux inhibition mdr1a(−/−)): 0.0 | obs–calc (log Po^in situ) ([1]; no efflux inhibition): −0.4 and −0.2 | log Po^in situ (obs) ([8]; efflux inhibition bcrp(−/−)): −5.95 | Q (charge class) [3, 18]: 0 | log PABL [9]: −4.62 | log Po [9]: −6.40 | Pm^7.4 ([9]; pH 7.4): 0.4 | PS ([10]; efflux inhibition bcrp(−/−)): 1 10^−4 mLg^−1s^−1 | log PS ([10]; efflux inhibition bcrp(−/−)): −4.08

COc1ccc2c3c1O[C@H]1[C@@H](O)C=C[C@H]4[C@@H](C2)N(C)CC[C@@]341 [Codeine]
obs–calc (log Po^in situ) [1]: −0.2 | log PABL [2]: −4.69 | log Po [2]: −3.68 | log Ppara [2]: −7.16 | Pm^7.4 [2]: 27 | Q (charge class) [3]: + | PS ([5]; in vivo): 33 10^−4 mLg^−1s^−1 | log PS ([5]; in vivo): −2.48 | log BB (brain-to-plasma total concentration ratio) [11]: 0.55 | log Po^in situ (obs) [6]: −3.80

COc1cccc2c1C(=O)c1c(O)c3c(c(O)c1C2=O)C[C@@](O)(C(=O)CO)C[C@@H]3O[C@H]1C[C@H](N)[C@H](O)[C@H](C)O1 [Doxorubicin]
obs–calc (log Po^in situ) ([1]; efflux inhibition mdr1a(−/−)): 1.7 | obs–calc (log Po^in situ) ([1]; efflux inhibition mrp1(−/−)): 1.4 | obs–calc (log Po^in situ) ([1]; efflux inhibition verapamil): 1.6 | log PABL [2]: −4.61 | log Po [2]: −4.23 | log Ppara [2]: −12 | Pm^7.4 [2]: 0.3 | log Po^in situ (obs) ([12]; efflux inhibition verapamil): −3.14 | log Po^in situ (obs) ([8]; efflux inhibition mrp1(−/−)): −3.35 | Q (charge class) [3, 18]: + | PS ([5]; efflux inhibition verapamil): 4 10^−4 mLg^−1s^−1 | log PS ([5]; efflux inhibition verapamil): −3.44 | PS ([10]; efflux inhibition mrp1(−/−)): 2 10^−4 mLg^−1s^−1 | log PS ([10]; efflux inhibition mrp1(−/−)): −3.66

CNCCC(Oc1ccc(C(F)(F)F)cc1)c1ccccc1 (stereo not shown) [Fluoxetine]
pKa [4]: 9.79

CC(C(=O)O)c1ccc(-c2ccccc2)c(F)c1 (stereo not shown) [Flurbiprofen]
pKa [13]: 4.18 | obs–calc (log Po^in situ) [1, 19]: 0.0 | log PABL [2]: −2.84 | log Po [2]: −2.35 | log Ppara [2]: −6.99 | Pm^7.4 [2]: 3 | log Po^in situ (obs) [12, 19]: −0.58 | Q (charge class) [3, 18]: − | PS ([5]; in vivo): 158 10^−4 mLg^−1s^−1 | log PS ([5]; in vivo): −1.80

CC(C)n1c(/C=C/C(O)CC(O)CC(=O)O)c(-c2ccc(F)cc2)c2ccccc21 (stereo not shown) [Fluvastatin Acid]
obs–calc (log Po^in situ) ([1]; no efflux inhibition): 0.9 | log Po [14]: −3.56 | Pm^7.4 [14]: 0.2 | Q (charge class) [3, 18]: −

COc1ccc2c3c1O[C@H]1C[C@@H](O)C=C[C@@]31CCN(C)C2 [Galanthamine]
obs–calc (log Po^in situ) [1]: 0.2 | log PABL [2]: −4.89 | log Po [2]: −3.41 | log Ppara [2]: −7.73 | Pm^7.4 [2]: 22 | Q (charge class) [3]: + | PS ([5]; in vivo): 33 10^−4 mLg^−1s^−1 | log PS ([5]; in vivo): −2.48 | log BB (brain-to-plasma total concentration ratio) [11]: 0.00 | PS ([10]; mouse, in vivo): 35 10^−4 mLg^−1s^−1 | log PS ([10]; mouse, in vivo): −2.46 | pKa (physchem [15]): 8.62 | log Po^in situ (obs) [6]: −3.24 | log Po^in situ (obs) [16]: −3.21

OCCOCCN1CCN(C(c2ccccc2)c2ccc(Cl)cc2)CC1 (stereo not shown) [Hydroxyzine]
pKa [13]: 7.52 | pKa ([13]; second pKa column): 2.66 | obs–calc (log Po^in situ) ([1]; efflux inhibition CsA): 0.6 | obs–calc (log Po^in situ) ([1]; no efflux inhibition): 0.7 | log PABL [2]: −3.26 | log Po [2]: −3.72 | log Ppara [2]: −8 | Pm^7.4 [2]: 82 | log Po^in situ (obs) ([12]; efflux inhibition CsA): −3.04 | Q (charge class) [3, 18]: 0 | PS ([5]; efflux inhibition CsA): 393 10^−4 mLg^−1s^−1 | log PS ([5]; efflux inhibition CsA): −1.41

CCOC(=O)C1(c2ccccc2)CCN(C)CC1 [Meperidine]
obs–calc (log Po^in situ) [1]: −0.5 | log Po [14]: −1.68 | Pm^7.4 [14]: 1290 | Q (charge class) [3]: + | PS ([5]; in vivo): 549 10^−4 mLg^−1s^−1 | log PS ([5]; in vivo): −1.26 | PS ([10]; mouse, in vivo): 525 10^−4 mLg^−1s^−1 | log PS ([10]; mouse, in vivo): −1.28 | log Po^in situ (obs) [6]: −2.05 | log Po^in situ (obs) [16]: −2.08

CCC(=O)C(CC(C)N(C)C)(c1ccccc1)c1ccccc1 (stereo not shown) [Methadone]
log Po [14]: −2.18

O=C1C[C@@H](c2ccc(O)cc2)Oc2cc(O)cc(O)c21 [Naringenin]
pKa (physchem [7]): 10.4 | obs–calc (log Po^in situ) ([1]; efflux inhibition PSC833): 0.0 | log PABL [2]: −4.00 | log Po [2]: −3.94 | log Ppara [2]: −6.93 | Pm^7.4 [2]: 33 | log Po^in situ (obs) ([12]; efflux inhibition PSC833): −3.96 | Q (charge class) [3, 18]: 0 | PS ([5]; in vivo): 105 10^−4 mLg^−1s^−1 | log PS ([5]; in vivo): −1.98

O=c1c(O)c(-c2ccc(O)c(O)c2)oc2cc(O)cc(O)c12 [Quercetin]
pKa (physchem [7]): 9.4 | obs–calc (log Po^in situ) ([1]; difference observed minus calculated, external set, no efflux inhibition): −0.4 | obs–calc (log Po^in situ) ([1]; efflux inhibition GF120918): 0.7 | obs–calc (log Po^in situ) ([1]; efflux inhibition: PSC833): −0.3 | log PABL [2]: −4.92 | log Po [2]: −4.40 | log Ppara [2]: −6.87 | Pm^7.4 [2]: 5 | PS ([17]; efflux inhibition: PSC833): 2 10^−4 mLg^−1s^−1 | log PS ([17]; efflux inhibition: PSC833): −3.67 | log Po^in situ (obs) ([12]; efflux inhibition GF120918): −4.03 | Q (charge class) [3, 18]: 0 | PS ([5]; efflux inhibition GF120918): 22 10^−4 mLg^−1s^−1 | log PS ([5]; efflux inhibition GF120918): −2.65

C=C[C@H]1C[N@@]2CC[C@H]1C[C@@H]2[C@@H](O)c1ccnc2ccc(OC)cc12 [Quinidine]
PS ([17]; rat, in vivo): 4 10^−4 mLg^−1s^−1 | Q (charge class) [3, 18]: +

O=C(O)c1ccccc1O [Salicylic Acid]
obs–calc (log Po^in situ) ([1]; no efflux inhibition): 0.9 | log Po (Double-Sink PAMPA): −3.34 | Q (charge class) [3, 18]: −

CCCC(CCC)C(=O)O [Valproic Acid]
obs–calc (log Po^in situ) ([1]; efflux inhibition column: Kd): −0.2 | obs–calc (log Po^in situ) ([1]; efflux inhibition mdr1a(−/−)): −0.2 | log Po (Double-Sink PAMPA): −3.77 | log Po^in situ (obs) ([12]; efflux inhibition column: Kd): −2.54 | Q (charge class) [3, 18]: − | PS ([5]; in vivo): 93 10^−4 mLg^−1s^−1 | log PS ([5]; in vivo): −2.03

COc1ccc(C(CN(C)C)C2(O)CCCCC2)cc1 (stereo not shown) [Venlafaxine]
obs–calc (log Po^in situ) [1]: 0.6 | Q (charge class) [3]: + | PS ([5]; in vivo): 104 10^−4 mLg^−1s^−1 | log PS ([5]; in vivo): −1.98 | log Po (PAMPA-BBB Type II; PAMPA-BBB intrinsic permeability, Type II and I/II): −2.17 | log PABL (PAMPA-BBB Type II; aqueous boundary layer permeability, Type II and I/II): −3.22 | Pm^7.4 (PAMPA-BBB Type II; membrane permeability at pH 7.4, Type II and I/II): 32 | log Po^in situ (obs) [6]: −1.66

CC[C@]1(O)C[C@@H]2CN(CCc3c([nH]c4ccccc34)[C@@](C(=O)OC)(c3cc4c(cc3OC)N(C)[C@H]3[C@@](O)(C(=O)OC)[C@H](OC(C)=O)[C@]5(CC)C=CCN6CC[C@]43[C@@H]65)C2)C1 [Vinblastine]
obs–calc (log Po^in situ) ([1]; efflux inhibition GF120918): 0.2 | obs–calc (log Po^in situ) ([1]; efflux inhibition PSC833): 0.1 | obs–calc (log Po^in situ) ([1]; efflux inhibition mdr1a(−/−)): 0.2 and 0.4 | log PABL [2]: −3.25 | log Po [2]: −4.36 | log Ppara [2]: −5.54 | Pm^7.4 [2]: 32 | log Po^in situ (obs) ([12]; efflux inhibition GF120918): −4.94 | log Po^in situ (obs) ([12]; efflux inhibition PSC833): −5.06 | Q (charge class) [3, 18]: 0 | PS ([5]; efflux inhibition GF120918): 6 10^−4 mLg^−1s^−1 | log PS ([5]; efflux inhibition GF120918): −3.25 | PS ([5]; in vivo): 4 10^−4 mLg^−1s^−1 | log PS ([5]; in vivo): −3.37

CC[C@]1(O)C[C@H]2CN(CCc3c([nH]c4ccccc34)[C@@](C(=O)OC)(c3cc4c(cc3OC)N(C=O)[C@H]3[C@@](O)(C(=O)OC)[C@H](OC(C)=O)[C@]5(CC)C=CCN6CC[C@]43[C@@H]65)C2)C1 [Vincristine]
obs–calc (log Po^in situ) ([1]; efflux inhibition mdr1a(−/−)): −0.1 | obs–calc (log Po^in situ) ([1]; efflux inhibition mrp1(−/−)): −0.5 | log PABL [2]: −4.62 | log Po [2]: −4.54 | log Ppara [2]: −7.67 | Pm^7.4 [2]: 14 | log Po^in situ (obs) ([8]; efflux inhibition mrp1(−/−)): −5.95 | Q (charge class) [3, 18]: 0 | PS ([10]; efflux inhibition mrp1(−/−)): 1 10^−4 mLg^−1s^−1 | log PS ([10]; efflux inhibition mrp1(−/−)): −4.25

NC(Cc1ccc(F)cc1)C(=O)O (stereo not shown) [p-F-Phenylalanine]
log Po [14]: −6.13 | Pm^7.4 [14]: 0.7 | Q (charge class) [3]: ±
